Measurements: US11034670B2, “Poly-ADP ribose polymerase (PARP) inhibitors” (Mitobridge, Inc., priority 2016, dated 2021)

Test system: kidney injury (ischemia-reperfusion)
Conditions: rat; for blood urea nitrogen (BUN) / plasma creatinine: 15 mg/kg IV after ischemia-reperfusion, 24 hours after reperfusion, vs IR-vehicle; for kidney injury: dosed IV after ischemia-reperfusion

Row | Compound | blood urea nitrogen (BUN) | plasma creatinine | kidney injury
1 | C[C@H]1CN(c2ccc(C#N)cn2)CCN1C(=O)CCc1nc2ccc(F)cc2c(=O)[nH]1 [Ex. 29, 6-[(3S)-4-[3-(6-fluoro-4-oxo-3H-quinazolin-2-yl)propanoyl]-3-methyl-piperazin-1-yl]pyridine-3-carbonitrile] | significantly reduced | significantly reduced | reduced kidney injury
2 | C[C@H]1CN(c2ccc(C#N)cn2)CCN1C(=O)CCc1nc2cccc(F)c2c(=O)[nH]1 [Ex. 30, 6-[(3S)-4-[3-(5-fluoro-4-oxo-3H-quinazolin-2-yl)propanoyl]-3-methyl-piperazin-1-yl]pyridine-3-carbonitrile] | significantly reduced | significantly reduced | reduced kidney injury
